Results as given in patent US20040147595A1, “Biofilm degrading or sloughing compositions and methods” (priority 2001, published 2004).
Values joined by “and” are separate entries in the source; they are usually repeats but may differ in a detail not shown here. Equal values may be shown once. “Also recorded” adds a separate entry of the source. Read-outs that look alike come from different tables or passages of the source.

Columns and labels:
[1] = system: OHHL induced LuxR dependent expression of GFP; test: Quantitative furanone inhibition of the LuxR-PluxI-gfp(ASV) quorum sensor in E. coli MT102 (pJBA89); assay type: cell-based, Escherichia coli; details: gradient of furanone concentration lowering RFU to 40% versus OHHL concentration (5-100 nM)
Source text: To analyse the AHL antagonist activity of the halogenated furanones we tested the compounds for their ability to inhibit 3oxo-C6-HSL (OHHL) induced LuxR dependent expression of green fluorescent protein (GFP) from a Pgfp(ASV) fusion in the AHL monitor strain E. coli MT102 harbouring pJBA89 (Andersen et al., 2001).
The medium used is minimal ABT containing 0.5% glucose and 0.5% Casamino Acids. In growing cultures of the AHL monitor strain E. coli Mt102 (pJBA89) encoding […] and a P-gfp(ASV) fusion, GFP(ASV) is produced immediately upon OHHL addition specifically from the LuxR controlled P-gfp(ASV) fusion gene. The sensitivity is high (responsive to as little as 3 nm OHHL) and due to the instability built into the GFP (ASV) variant there is no background production of green fluoroscence (Andersen et al., 2001). GFP expression from the AHL monitor strain E. coli MT102 (pJBA89) and the control strain MT102 harbouring the lacl^q, Plas-gfp(ASV) IPTG inducible expression system pMH197 was quantified in the following way. Overnight cultures were diluted four fold in fresh medium and incubated for one hour at 30° C. while OHHL and furanone compounds in the required concentrations were mixed in the wells of microtiter dishes. […] When absolute values were required, green fluoroscence was measured on a fluorometer (model RF-1501; Shimadzu, Tokyo, Japan) act at an excitation wavelength of 475 nm and emission detection at 515 nm. To establish a correlation between the colour code of the ARGUS-50 captured images and green fluorescence, both colour and relative fluorescence units (RFU), were determined for a dilution series of an E. coli MT102 (pJBA89) culture which had been incubated with […]. […]
From the second plot, the furanone concentration reducing the relative activity to 40% (ID60) is determined for each OHHL concentration. […]
To enable easy comparison of the strength of the furanones, an inhibition index (IIX40) is calculated for each furanone compound. […]

[2] = system: las quorum sensing system (lasB-gfp(ASV) Plac-lasR); test: pMHLAS lasB-gfp(ASV) reporter in E. coli MT102; assay type: cell-based, Escherichia coli; details: for induction of the lasB-gfp(ASV) monitor by AHL compounds: E. coli with pMHLAS, AHLs 0 to 1000 nM
Description: (§1) AHL and furanone bioassay. Strains were grown exponentially in LB or ABt medium supplemented with 0.5% glucose at 30° C., shading at 250 rpm. At an optical density of approximately 0.8. the cultures were diluted and split into subcultures in glass culture flasks. AHLs and furanone 56 were added to appropriate concentrations and the cultures were further incubated at 30° C. under vigorous shaking. Culture samples were retrieved at various time intervals and green fluorescence was measured with a fluorometer (model RF-1501, Shimadzu, Tokyo, Japan) set at an excitation wavelength of 475 nm and emission wavelength of 515 nm. Relative fluorescence was calculated as green fluorescence normalized to 1 ml culture divided by the optical density (OD600 nm.
(§2) Initially, the lasB-gfp(ASV) translational fusion (OdDHL sensor) was thoroughly characterized with respect to its sensitivity and specificity. A culture of E. coli hosting the pMHLAS monitor plasmid was diluted and spilt into several subcultures which were then supplemented with AHLs at concentrations ranging from 0 to 1000 nM. […] When the pMHLAS based reporter system was hosted by PAO-JP2. the OdDHL concentration required for half-maximal activation of the lasB-gfp(ASV) fusion was 8 nM (data not shown). In single copy on the chromosome of PAO-JP2, the OdDHL concentration on required for half-maximal activation of lasB expression was approximately 250 nM (FIG. 2b). Green fluorescent cells were visible by epifluorescence microscopy at a minimal OdDHL concentration of 50 nM (FIG. 2c).
Effect of the furanone in a heterologous background. The direct regulation exerted by the las regulon on lasB expression is well described by numerous studies (Gambello & Iglewski, 1991: Pearson et al., 1994; Pearson et al., 1997). Regulatory complexity is added by the observation that the las quorum sensing circuit itself is subject to global regulators (Albus et al., 1997; Whiteley et al., 2000) and that lasB expression is also controlled by other regulators than LasR (Brumlik & Storey, 1992; Pesci et al., 1999; Schictman et al., 1995). It was, therefore, important to rule out that QSI effect, observed is not caused by furanone interaction with high levels of control. Since there is no AHL-based quorum sensing system present in Escherichia coli (Williams et al., 2000), this bacterium provides an unbiased and well-defined genetic background for studying the direct effects of the furanone on the P. aeruginosa las quorum sensing system. We repeated the above-described experiments using E. coli MT102 as a heterologous host for the reporter system. […] This is likely to be attributed to the increased copy number of the reporter plasmid.

[3] = system: las quorum sensing system (lasB-gfp(ASV) expression); test: AHL and furanone bioassay, PlasB-gfp(ASV) Plac-lasR reporter in planktonic PAO-JP2; assay type: cell-based, Pseudomonas aeruginosa
Description: as §1, §2
Noteworthy, the inhibitory effect of furanone 56 was relieved at increased concentrations of OdDHL.

elastase = test: Virulence factor production: elastase (proteolytic) activity of PAO-JP2 supernatant; assay type: cell-based, Pseudomonas aeruginosa
Description: Measurements of virulence factors. PAO-JP2 was grown in LB medium at 37° C. and shaking at 250 rpm to an OD600 nm of 1.0. The culture was divided into seven subcultures, which were added 0, 70, or 1000 nm OdDHL and 0. 3. or 5 μg/ml furanone 58. The cultures were grown for an additional 4 hours at 37° C. The proteolytic activity was measured as described by Ayora & G{overscore (o)}tz (1994). Azocasein (250 μl 2%, Sigma, St. Louis, Mo.) in 50 mM Tris/HCl and steril-filtered (Ø 0.2 μm) supernatant (150 μl) were incubated for 4 h at […] After precipitation of undigested substrate with trichloroacetic acid (1.2 ml 10%) for 15 minutes, followed by 10 minutes centrifugation at 1000 rpm, NaOH (1.4 ml 1 M) were added to the supernatant. The relative protease activity was measured as the absorbance at 440 nm (OD440 nm) of the supernatant divided by the optical density of the culture (OD600 nm ).

chitinase = test: Virulence factor production: chitinase activity of PAO-JP2 supernatant; assay type: cell-based, Pseudomonas aeruginosa
Description: The chitinase activity assay was performed as described by the assay manufacturer (Loewe Biochemica, Sauerlach, Germany). Supernatant (560 μl) of cultures prepared as described for the elastase assay was mixed with carboxymethyl-chitin-remazol brilliant violet (200 μl) and sodium phosphate buffer (40 μl, 1 M, pH 7.5). The reaction mixture was incubated for 18 h at 40° C. in a waterbath. The reaction was stopped by addition of HCl (200 μl, 2 N) and kept for 15 min on ice. After centrifugation (10 min at 15000 rpm), the absorbance (OD550 nm) of the supernatant was measured. The relative chitinase activity was calculated as OD550 nm/OD600 nm normalized to 1 ml supernatant.

[4] = system: lasB-gfp(ASV) reporter in P. aeruginosa PAO-JP2 biofilm; test: OdDHL-mediated signalling in PAO-JP2 flowcell biofilm, lasB-gfp(ASV) reporter, CSLM; assay type: cell-based, Pseudomonas aeruginosa
Description: P. aeruginosa biofilms. Biofilms were grown at 30° C. in three-dimensional flow cells (Christensen et al., 1999) with individual channel dimensions of 0.3×4×40 mm supplied With ABt minimal medium supplemented with 2% LB. The flow system was assembled and prepared as described by Christensen et al. (1999). The substratum consisted of a microscope glass coverslip (Knittel 24×50 mm st1, Knittel Glaser, Braunschweig, Germany). Cultures for inoculation of the flow channels were prepared in the following way: P. aeruginosa strains were streaked on LB plates with the appropriate antibiotics and incubated for 24 h at 37° C. From each plate a single colony was used for inoculation of 10 ml ABt with 10% LB. The cultures were grown at, 30° C. for 18 h before they were diluted to an OD600 nm of 0.1 in sterile 0.9% NaCl and used for inoculation of the flow channels. Medium flow was kept at a constant rate of 3 mL/h, equivalent to a mean flow velocity of 0.7 mm/s, using a Watson-Marlow 205S peristaltic pump (Watson-Marlow, Falmouth, England). Biofilms were grown for 24 hours before being shifted to media containing AHL and furanone.
Scanning confocal laser microscopy (SCLM). Microscopic inspection and image acquisition were performed an a scanning confocal laser microscope (model TCS4D, Leica Lasertechnik GmbH, Heldelberg, Germany) equipped with a 63×/1.32-0.6 oil objective. The microscope was equipped with a motorized and programmable xy-stage, which was used for monitoring single colonies during the biofilm experiments. At the beginning of each online experiment, the microscope was programmed to track single randomly selected microcolonies; the sensitivity of photo multipliers and the laser intensity were adjusted and thereafter kept constant through out the duration of the experiments. Image scanning was carried out using the 488 nm and 568 nm lines of an Ar/Kr laser for detection of Gfp and Rfp, respectively. Visualization of captured images was performed using the IMARIS software package (Bitplane AG, Zúrich, Switzerland) running on a Silicon Graphics Indigo 2 workstation (Silicon Graphics, Mountain View, Calif. USA).
Inhibition of AHL-mediated signalling in P. aeruginosa biofilms. The lasB-gfp(ASV) reported was integrated into the chromosome of PAO-JP2 to ensure stable segregation and a constant gene dosage of the reported system. The strain was growth in flowcells for 24 hours in ABt-LB medium and a 10-15 μm thick biofilm developed. The media flow was subsequently switched to ABt-LB medium containing the appropriate AHL and furanone concentrations. The development of green fluorescence was monitored online by CSLM for 8 hours.

lasB promotor = details: Gray et al., 1994; cited from earlier work
lasB promoter = details: Pearson et al (1995), pKDT17 in PAO-R1; read-out: OdDHL required for half-maximal activation of a similar construct; cited from earlier work
P. aeruginosa = details: cited from earlier work

In the case of CCCCC1=C(Br)/C(=C/Br)OC1=O [Compound 2], the “inhibition index (IIX40)” value [1] is reported as 0.75 mole of furanone per mmole of.
With CCCCCCCC(=O)CC(=O)N[C@H]1CCOC1=O [ODHL, N-[3-oxo-decanoyl]-L-homoserine lactone] the “induction of the lasB-gfp(ASV) monitor by AHL compounds” value (“induction of the lasB-gfp(ASV) monitor” below) [2] was “activated lasB-expression albelt at a lower level; also recorded: less efficient”.
With CCCCCC(=O)CC(=O)N[C@H]1CCOC1=O [OOHL, N-[3-oxo-octanoyl]-L-homoserine lactone] the “induction of the lasB-gfp(ASV) monitor” value [2] was “less efficient”.
For CCCCCCCCCC(=O)CC(=O)N[C@H]1CCOC1=O [OdDHL, N-[3-oxo-dodecanoyl]-L-homoserine lactone], the “minimal OdDHL concentration at which green fluorescent cells were visible by epifluorescence microscopy” value ([3]; mini-Tn5 reporter in PAO-JP2) was 50 nM, the EC50 ([3]; pMHLAS based (plasmid) reporter hosted by PAO-JP2, data not shown, read-out: OdDHL concentration required for half-maximal activation of the lasB-gfp(ASV) fusion) was 8 nM and the EC50 ([3]; reporter in single copy on the chromosome of PAO-JP2, read-out: OdDHL concentration required for half-maximal activation of lasB expression) was ~250 nM and 250 nM. The “lowest OdDHL concentration detected by the reporter” value ([3]; single chromosomal copy, data not shown) was 20 nM, the “induction of the lasB-gfp(ASV) monitor” value [2] was “most efficient inducer” and the “increased responsiveness to OdDHL of the E. coli strain harboring the lasB reporter” value ([2]; compared with the PAO-JP2 reporter) was “approx. 10 fold”. The elastase activity (elastase; PAO-JP2, 70 nm OdDHL) was “induced”, the “elastase activity in furanone-treated culture” value (elastase; addition of 1 μM OdDHL) was “entirely restored” and the chitinase activity (chitinase; PAO-JP2, 70 nm OdDHL) was “induced”. For the same molecule, the “chitinase activity in furanone-treated culture” value (chitinase; addition of 1 μM OdDHL) was “entirely restored”, the “lowest OdDHL concentration inducing lasB promoter activity in PAO-JP2 biofilms” value [4] was 20 nM and the “expression of the lasB-gfp(ASV) reporter fusion in biofilm” value ([4]; 40 nm OdDHL) was “induced and visible in the single cells within four hours”. The “induction of the promotor in response to OdDHL addition” value (lasB promotor) was 63 fold and the EC50 (lasB promoter) was 1000 nM.
In the case of NC[C@H]1O[C@H](O[C@H]2[C@H](O)[C@@H](O[C@H]3O[C@H](CO)[C@@H](O)[C@H](N)[C@H]3O)[C@H](N)C[C@@H]2N)[C@H](N)C[C@@H]1O [tobramycin], the “resistance in the biofilm form compared to the planktonic cells” value (P. aeruginosa) is given as 50,000 times.
